Values quoted from earlier work as cited in patent US20210299075A1 (priority 2020, published 2021).

Key:
[1] = system: herpes simplex virus, rhabdovirus, and other enveloped viruses; settings: Poli et al.
adenovirus = settings: Poli et al.; the only naked virus tested
[2] = Hendley et al.
[3] = frequent application

Compound | antiviral activity against enveloped viruses [1] | antiviral activity against adenovirus (adenovirus) | antiviral activity [2] | irritation of the skin [3]
O=C(O)CC(O)(CC(=O)O)C(=O)O [citric acid] | effective | not effective |  | 
O=C(O)CCC(=O)O [succinic acid] | effective | not effective |  | 
benzalkonium chloride [benzalkonium chloride (BAK)] |  |  | performed poorly | 
CC(=O)C(=O)O [pyruvic acid] | effective | not effective |  | 
O=C(O)CC(O)C(=O)O (stereo not drawn) [malic acid] | effective | not effective |  | 
CCO [ethyl alcohol] |  |  | performed poorly | 
II [iodine] |  |  | all except iodine performed poorly | too irritating to the skin
